From patent US20170044208A1, “SELECTIVE GLUCOCORTICOID RECEPTOR LIGANDS” (The University of Manchester, priority 2013, published 2017)
Where two headings read alike, the source gives them in different places.

Tests used:
[1] = molecular target: T1, Glucocorticoid Receptor (GR) (Homo sapiens, UniProt P04150); assay: Transactivation assay (MMTV-Luc reporter in HeLa cells); format: cell-based
T1 construct: Cells were transfected the next day with MMTV-Luc (5 μg) and pGL4-hRLuc (0.1 μg); endogenous in cells; host or cells: HeLa
T1 sequence (P04150 1-777): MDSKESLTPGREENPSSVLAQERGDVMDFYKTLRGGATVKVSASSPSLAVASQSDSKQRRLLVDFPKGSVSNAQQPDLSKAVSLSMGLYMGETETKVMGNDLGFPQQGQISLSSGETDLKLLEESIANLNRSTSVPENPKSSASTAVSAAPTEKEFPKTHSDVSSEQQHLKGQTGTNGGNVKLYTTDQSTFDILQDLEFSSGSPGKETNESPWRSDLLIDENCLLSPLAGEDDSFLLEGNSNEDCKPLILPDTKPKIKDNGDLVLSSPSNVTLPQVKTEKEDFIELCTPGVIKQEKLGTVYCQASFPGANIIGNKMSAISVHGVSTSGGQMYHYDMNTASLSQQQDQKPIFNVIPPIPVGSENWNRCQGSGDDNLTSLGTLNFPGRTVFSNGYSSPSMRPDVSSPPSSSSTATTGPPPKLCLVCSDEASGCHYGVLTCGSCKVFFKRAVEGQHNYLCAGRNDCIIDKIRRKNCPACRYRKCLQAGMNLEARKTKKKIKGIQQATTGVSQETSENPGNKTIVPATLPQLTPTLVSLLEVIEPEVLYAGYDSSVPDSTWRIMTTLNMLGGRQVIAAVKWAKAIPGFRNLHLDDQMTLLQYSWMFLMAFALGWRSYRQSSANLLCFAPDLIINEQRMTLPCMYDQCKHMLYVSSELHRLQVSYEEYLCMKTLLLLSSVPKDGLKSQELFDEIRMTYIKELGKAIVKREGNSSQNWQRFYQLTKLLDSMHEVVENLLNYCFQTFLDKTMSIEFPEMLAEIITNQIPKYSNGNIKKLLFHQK
Procedure: (§1) HeLa cells were seeded at 80×10^4 cells/dish in 100 mm dishes. Cells were transfected the next day with MMTV-Luc (5 μg) and pGL4-hRLuc (0.1 μg), in 250 μL of Opti-MEM I using FuGENE HD (15 μL). After 24 hours, cells were trypsinized and seeded into 96-well plates at a density of 8-10×10^4 cells/mL.
Following overnight incubation to allow attachment, cells were treated with the required concentration of compounds, then further incubated for 16 hours. Media was aspirated and cells lysed in 40 μL of 1×PLB.
(§2) Firefly and Renilla luciferase activity was measured using the Dual Luciferase Reporter system following the manufacturer's protocol.
(§3) IC50 and EC50 values were calculated by using GraphPad Prism 5.0. Briefly, luminescence values for luciferase were normalised using the Renilla luminescence values. The normalised values were input into GraphPad Prism 5.0. Non-linear regression analysis was carried out using the “log(concentration) vs. response” equation of the software, with a Hill slope coefficient fixed at 1.
(§4) IC50 and EC50 values are mean values in nM of all IC50/EC50 values for the compound. Max % values are mean values of the Max% activity.

NFkB = assay: Transrepression assay (NFκB-LUC reporter in HeLa cells, TNF stimulated); format: cell-based; conditions: for Emax / IC50: Homo sapiens, HeLa; for Emax: 16 h, read-out: TR Max %; for TR %: maximal NFkB repression compared to Dexamethasone
Procedure: as §1, with “NFκB-LUC reporter” for “MMTV-Luc”, “0.25 mL” for “250 μL”, “in to 24-well” for “into 96-well”, “cells/mL. Following overnight incubation, cells were starved for a further 24 hours in DMEM.” for “cells/mL.”
On the day of the experiment, compounds were added to cells one hour prior to the addition of […] (0.5 ng/mL). After a further 16 hours, cells were washed twice with ice-cold PBS, then lysed with 100 μL of 1×PLB.
as §2, §3, §4

[2] = concentration for half-maximal transactivation; HeLa, MMTV-Luc, 16 hours; mean; read-out: TA EC50
[3] = concentration for half-maximal repression of NFkB, TNF 0.5 ng/mL, 16 hours, mean, read-out: TR IC50
[4] = comparison table; against maximal activation seen with dexamethasone
[5] = comparison table, half-maximal repression of NFkB, multiple experiments, read-out: IC50

Compound	Emax ([1]; HeLa, 16 h; read-out: TA Max %)	EC50 [1, 2]	Emax (NFkB)	IC50 (NFkB; [3])	TA % [1, 4]	IC50 (NFkB; [5])	TR % (NFkB; comparison table)	Emax ([1]; HeLa, 16 h, read-out: TA Max %)
C[C@@H]1C[C@H]2[C@@H]3CCC4=CC(=O)C=C[C@]4(C)[C@@]3(F)[C@@H](O)C[C@]2(C)[C@@]1(O)c1csc(NC(=O)c2ccc(F)c(F)c2)n1 [Compound 44]	14.6%	914 nM	41.8%	28.6 nM				
C[C@@H]1C[C@H]2[C@@H]3CCC4=CC(=O)C=C[C@]4(C)[C@@]3(F)[C@@H](O)C[C@]2(C)[C@@]1(O)c1csc(NC(=O)c2ccc(F)cc2)n1 [Compound 23]	5.67%	1400 nM	52.1%	35.8 nM	6%	35.8 nM	52%	
C[C@@H]1C[C@H]2[C@@H]3CCC4=CC(=O)C=C[C@]4(C)[C@@]3(F)[C@@H](O)C[C@]2(C)[C@@]1(O)C(=O)NCCOc1nc2ccccc2o1 [Compound 10]	4.79%	3390 nM	55.1%	35.4 nM				
C[C@@H]1C[C@H]2[C@@H]3CCC4=CC(=O)C=C[C@]4(C)[C@@]3(F)[C@@H](O)C[C@]2(C)[C@@]1(O)C(=O)NCCOc1ccncc1 [Compound 12]	23.8%	719 nM	91.1%	40.7 nM				
C[C@@H]1C[C@H]2[C@@H]3CCC4=CC(=O)C=C[C@]4(C)[C@@]3(F)[C@@H](O)C[C@]2(C)[C@@]1(O)c1csc(NC(=O)c2cnco2)n1 [Compound 41]	1.27%	10300 nM	26%	41.8 nM				
COC(=O)c1ccc(OCCCNC(=O)[C@@]2(O)[C@H](C)C[C@H]3[C@@H]4CCC5=CC(=O)C=C[C@]5(C)[C@@]4(F)[C@@H](O)C[C@@]32C)cc1 [Compound 17]	39.1%	832 nM	82.3%	1.19 nM	39%	1.19 nM	87%	
C[C@@H]1C[C@H]2[C@@H]3CCC4=CC(=O)C=C[C@]4(C)[C@@]3(F)[C@@H](O)C[C@]2(C)[C@@]1(O)c1csc(NC(=O)c2ccc(Cl)cc2)n1 [Compound 27]	5.89%	1640 nM	49.7%	10.9 nM				
COc1ccc(OCCCNC(=O)[C@@]2(O)[C@H](C)C[C@H]3[C@@H]4CCC5=CC(=O)C=C[C@]5(C)[C@@]4(F)[C@@H](O)C[C@@]32C)cc1 [Compound 4]		69.2 nM	106%	3.95 nM				39.4%
C[C@@H]1C[C@H]2[C@@H]3CCC4=CC(=O)C=C[C@]4(C)[C@@]3(F)[C@@H](O)C[C@]2(C)[C@@]1(O)C(=O)NCCCc1ccccn1 [Compound 2]	18.3%	1180 nM	52.4%	23.5 nM				
COc1ccc(OCCNC(=O)[C@@]2(O)[C@H](C)C[C@H]3[C@@H]4CCC5=CC(=O)C=C[C@]5(C)[C@@]4(F)[C@@H](O)C[C@@]32C)cc1 [Compound 7]	44%	294 nM	97.3%	19.4 nM	44%	1.22 nM	98%	
Cc1ccc(C(=O)Nc2nc([C@@]3(O)[C@H](C)C[C@H]4[C@@H]5CCC6=CC(=O)C=C[C@]6(C)[C@@]5(F)[C@@H](O)C[C@@]43C)cs2)cc1 [Compound 45]	5.74%	8480 nM	42.3%	20.2 nM				
C[C@@H]1C[C@H]2[C@@H]3CCC4=CC(=O)C=C[C@]4(C)[C@@]3(F)[C@@H](O)C[C@]2(C)[C@@]1(O)c1csc(NC(=O)CCc2ccc(F)cc2)n1 [Compound 38]	2.48%	24400 nM	65.5%	31.2 nM				
C[C@@H]1C[C@H]2[C@@H]3CCC4=CC(=O)C=C[C@]4(C)[C@@]3(F)[C@@H](O)C[C@]2(C)[C@@]1(O)c1csc(NC(=O)c2ccc(F)nc2)n1 [Compound 47]	7.41%	669 nM	48%	22.9 nM				
C[C@@H]1C[C@H]2[C@@H]3CCC4=CC(=O)C=C[C@]4(C)[C@@]3(F)[C@@H](O)C[C@]2(C)[C@@]1(O)c1csc(NC(=O)c2ccc[nH]2)n1 [Compound 37]	3.22%	2770 nM	31.4%	17.9 nM				
COc1ccc(C(=O)Nc2nc([C@@]3(O)[C@H](C)C[C@H]4[C@@H]5CCC6=CC(=O)C=C[C@]6(C)[C@@]5(F)[C@@H](O)C[C@@]43C)cs2)cc1 [Compound 34]	0%	17500 nM	51.8%	4.76 nM				
CCOc1ccc(C(=O)Nc2nc([C@@]3(O)[C@H](C)C[C@H]4[C@@H]5CCC6=CC(=O)C=C[C@]6(C)[C@@]5(F)[C@@H](O)C[C@@]43C)cs2)cc1 [Compound 46]	9.95%	6650 nM	55.1%	27 nM				
C[C@@H]1C[C@H]2[C@@H]3CCC4=CC(=O)C=C[C@]4(C)[C@@]3(F)[C@@H](O)C[C@]2(C)[C@@]1(O)c1csc(NC(=O)c2cncs2)n1 [Compound 35]	0.23%	4180 nM	35.9%	44.8 nM				
C[C@@H]1C[C@H]2[C@@H]3CCC4=CC(=O)C=C[C@]4(C)[C@@]3(F)[C@@H](O)C[C@]2(C)[C@@]1(O)c1csc(NC(=O)c2ccccc2F)n1 [Compound 28]	0%	29400 nM	36%	120 nM				
COc1cccc(OCCCNC(=O)[C@@]2(O)[C@H](C)C[C@H]3[C@@H]4CCC5=CC(=O)C=C[C@]5(C)[C@@]4(F)[C@@H](O)C[C@@]32C)c1 [Compound 15]	20.8%	1230 nM	79.7%	3.53 nM				
COc1ccc(OCCCCNC(=O)[C@@]2(O)[C@H](C)C[C@H]3[C@@H]4CCC5=CC(=O)C=C[C@]5(C)[C@@]4(F)[C@@H](O)C[C@@]32C)cc1 [Compound 18]	26.3%	669 nM	82.1%	6.83 nM	26%	5.96 nM	84%	
